# In patent publication US8343963B2, “Sulfamoyl-phenyl-ureido compounds and their use as medicament” (4SC AG, priority 2009, dated 2013):
# Test system: multiresistant Dd2 strain of Plasmodium falciparum
# Assay: Antiplasmodial activity against Dd2 strain of Plasmodium falciparum ([8-3H]hypoxanthine incorporation)
# Format: cell-based
# Conditions: 66 h, P. falciparum Dd2, 48 h + 18 h with [8-3H]hypoxanthine, 50% parasite growth inhibition, read-out: Antiplasmodia activity (IC50 class)
# Experimental: For the determination of the antiplasmodial activity of the compounds described above, the multiresistant Dd2 strain of Plasmodium falciparum was used. The incorporation of [8-^3H]hypoxanthine into the parasitic nucleic acids was measured. The plasmodia were incubated at 0.3% parasitaemia and an erythrocyte haematocrit of 2.5% in the presence of different concentrations of the compounds in a final volume of 200 μl. The medium employed was RPMI 1640 which contained 10% of heat-treated human serum and 3 mg/l of gentamycin. In the incubations, the concentrations of the compounds varied from 0.001 to 100 μM. After 48 h, each batch was treated with 50 μl of [8-^3H]hypoxanthine (1 mCi/ml) and incubated for a further 18 h. The cells were filtered off, washed and suspended in 20 μl of scintillation fluid. The radioactive hypoxanthine absorbed by the parasites was then quantified using a scintillation counter. The results were presented graphically and the IC50 value was determined using a fitting function. The value IC50, the ‘inhibition constant’, indicates the value in μMol/l at which 50% parasite growth inhibition occurs (R. E. Desjardins, et al., Antimicrobiol. Agent Chemother. 16, pp. 710-718, 1979; J. D. Chulay, et al., Exp. Parasitol. 55, pp. 138-146, 1983).
row,Structure (SMILES),IC50
1,"N=C(c1cccc(NC(=O)Nc2ccc(S(=O)(=O)c3ccc(Br)cc3)cc2)c1)N1CCSCC1 [Compound 14, 1-(4-(4-bromophenylsulfonyl)phenyl)-3-(3-(imino(thiomorpholino)methyl)phenyl)urea]",0.02 to 0.2 µM
2,"CCN(CCO)C(=N)c1cccc(NC(=O)Nc2ccc(S(=O)(=O)NCc3ccc(S(N)(=O)=O)cc3)cc2)c1 [Compound 30, N-ethyl-N-(2-hydroxyethyl)-3-(3-(4-(N-(4-sulfamoylbenzyl)sulfamoyl)phenyl)ureido)benzimidamide]",0.21 to 0.99 µM
3,"CCCCN1CCN(C(=N)c2cccc(NC(=O)Nc3ccc(S(=O)(=O)NNc4ccc(S(N)(=O)=O)cc4)cc3)c2)CC1 [Compound 40, 4-(2-(4-(3-(3-((4-butylpiperazin-1-yl)(imino)methyl)phenyl)ureido)phenylsulfonyl)hydrazinyl)benzenesulfonamide]",≥ 1 µM
4,"N=C(c1cccc(NC(=O)Nc2ccc(S(=O)(=O)Nc3ccc(S(N)(=O)=O)cc3)cc2)c1)N1CCOCC1 [Compound 25, 4-(3-(3-(imino(morpholino)methyl)phenyl)ureido)-N-(4-sulfamoylphenyl)benzenesulfonamide]",≥ 1 µM
5,"COC(=O)N1CCN(C(=N)c2cccc(NC(=O)Nc3ccc(S(=O)(=O)Nc4ccc(S(N)(=O)=O)cc4)cc3)c2)CC1 [Compound 24, methyl 4-(imino(3-(3-(4-(N-(4-sulfamoylphenyl)sulfamoyl)phenyl)ureido)phenyl)methyl)piperazine-1-carboxylate]",≥ 1 µM
6,"CC(=O)N1CCN(C(=N)c2cccc(NC(=O)Nc3ccc(S(=O)(=O)NCc4ccc(S(N)(=O)=O)cc4)cc3)c2)CC1 [Compound 57, 4-(3-(3-((4-acetylpiperazin-1-yl)(imino)methyl)phenyl)ureido)-N-(4-sulfamoylbenzyl)benzenesulfonamide]",0.02 to 0.2 µM
7,"CCCCN1CCN(C(=N)c2cccc(NC(=O)Nc3ccc(S(=O)(=O)N(CCO)CCO)cc3)c2)CC1 [Compound 20, 4-(3-(3-((4-butylpiperazin-1-yl)(imino)methyl)phenyl)ureido)-N,N-bis(2-hydroxyethyl)benzenesulfonamide]",≥ 1 µM
8,"COCCN(CCOC)C(=N)c1cccc(NC(=O)Nc2ccc(S(=O)(=O)NCc3ccc(S(N)(=O)=O)cc3)cc2)c1 [Compound 32, N,N-bis(2-methoxyethyl)-3-(3-(4-(N-(4-sulfamoylbenzyl)sulfamoyl)phenyl)ureido)benzimidamide]",0.21 to 0.99 µM
9,"N=C(c1cccc(NC(=O)Nc2ccc(S(=O)(=O)c3ccc([N+](=O)[O-])cc3)cc2)c1)N1CCC(O)CC1 [Compound 10, 1-(3-((4-hydroxypiperidin-1-yl)(imino)methyl)phenyl)-3-(4-(4-nitrophenylsulfonyl)phenyl)urea]",0.02 to 0.2 µM
10,"CC(C)(C)OC(=O)N1CCN(C(=N)c2cccc(NC(=O)Nc3ccc(S(=O)(=O)NCc4ccc(S(N)(=O)=O)cc4)cc3)c2)CC1 [Compound 51, tert-butyl 4-(imino(3-(3-(4-(N-(4-sulfamoylbenzyl)sulfamoyl)phenyl)ureido)phenyl)methyl)piperazine-1-carboxylate]",0.21 to 0.99 µM
11,"N=C(c1cccc(NC(=O)Nc2ccc(S(=O)(=O)NCc3ccc(S(N)(=O)=O)cc3)cc2)c1)N1CCSCC1 [Compound 31, 4-(3-(3-(imino(thiomorpholino)methyl)phenyl)ureido)-N-(4-sulfamoylbenzyl)benzenesulfonamide]",0.21 to 0.99 µM
12,"N=C(c1cccc(NC(=O)Nc2ccc(S(=O)(=O)NCc3ccc(S(N)(=O)=O)cc3)cc2)c1)N1CCC(O)CC1 [Compound 48, 4-(3-(3-((4-hydroxypiperidin-1-yl)(imino)methyl)phenyl)ureido)-N-(4-sulfamoylbenzyl)benzenesulfonamide]",0.02 to 0.2 µM
13,"N=C(c1cccc(NC(=O)Nc2ccc(S(=O)(=O)c3ccc(Br)cc3)cc2)c1)N1CCC(C(N)=O)CC1 [Compound 16, 1-((3-(3-(4-(4-bromophenylsulfonyl)phenyl)ureido)phenyl)(imino)methyl)piperidine-4-carboxamide]",0.02 to 0.2 µM
14,"N=C(c1cccc(NC(=O)Nc2ccc(S(=O)(=O)c3ccc([N+](=O)[O-])cc3)cc2)c1)N1CCCC1 [Compound 7, 1-(3-(imino(pyrrolidin-1-yl)methyl)phenyl)-3-(4-(4-nitrophenylsulfonyl)phenyl)urea]",0.02 to 0.2 µM
15,"CCCCCN1CCN(C(=N)c2cccc(NC(=O)Nc3ccc(S(=O)(=O)NCc4ccc(S(N)(=O)=O)cc4)cc3)c2)CC1 [Compound 55, 4-(3-(3-(imino(4-pentylpiperazin-1-yl)methyl)phenyl)ureido)-N-(4-sulfamoylbenzyl)benzenesulfonamide]",< 0.02 µM
16,"CCCCN1CCN(C(=N)c2cccc(NC(=O)Nc3ccc(S(=O)(=O)NCc4ccccc4)cc3)c2)CC1 [Compound 36, N-benzyl-4-(3-(3-((4-butylpiperazin-1-yl)(imino)methyl)phenyl)ureido)benzenesulfonamide]",0.21 to 0.99 µM
17,"CN(C)C1CCN(C(=N)c2cccc(NC(=O)Nc3ccc(S(=O)(=O)NCc4ccc(S(N)(=O)=O)cc4)cc3)c2)C1 (stereo not drawn) [Compound 49, 4-(3-(3-((3-(dimethylamino)pyrrolidin-1-yl)(imino)methyl)phenyl)ureido)-N-(4-sulfamoylbenzyl)benzenesulfonamide]",0.02 to 0.2 µM
18,"CCCCN1CCN(C(=N)c2cccc(NC(=O)Nc3ccc(S(=O)(=O)NC)cc3)c2)CC1 [Compound 18, 4-(3-(3-((4-butylpiperazin-1-yl)(imino)methyl)phenyl)ureido)-N-methylbenzenesulfonamide]",≥ 1 µM
19,"CCCCN1CCN(C(=N)c2cccc(NC(=O)Nc3ccc(S(=O)(=O)c4ccc(Br)cc4)cc3)c2)CC1 [Compound 4, 1-(4-(4-bromophenylsulfonyl)phenyl)-3-(3-((4-butylpiperazin-1-yl)(imino)methyl)phenyl)urea]",0.21 to 0.99 µM
20,"COCCN(CCOC)C(=N)c1cccc(NC(=O)Nc2ccc(S(=O)(=O)c3ccc(Br)cc3)cc2)c1 [Compound 13, 3-(3-(4-(4-bromophenylsulfonyl)phenyl)ureido)-N,N-bis(2-methoxyethyl)benzimidamide]",≥ 1 µM
21,"N=C(c1cccc(NC(=O)Nc2ccc(S(=O)(=O)NCc3ccc(S(N)(=O)=O)cc3)cc2)c1)N1CCS(=O)(=O)CC1 [Compound 44, 4-(3-(3-((1,1-dioxidothiomorpholino)(imino)methyl)phenyl)ureido)-N-(4-sulfamoylbenzyl)benzenesulfonamide]",0.02 to 0.2 µM
22,"N=C(c1cccc(NC(=O)Nc2ccc(S(=O)(=O)c3ccc(N)cc3)cc2)c1)N1CCC(O)CC1 [Compound 17, 1-(4-(4-aminophenylsulfonyl)phenyl)-3-(3-((4-hydroxypiperidin-1-yl)(imino)methyl)phenyl)urea]",≥ 1 µM
23,"CCCCC(=O)N1CCN(C(=N)c2cccc(NC(=O)Nc3ccc(S(=O)(=O)NCc4ccc(S(N)(=O)=O)cc4)cc3)c2)CC1 [Compound 59, 4-(3-(3-(imino(4-pentanoylpiperazin-1-yl)methyl)phenyl)ureido)-N-(4-sulfamoylbenzyl)benzenesulfonamide]",0.02 to 0.2 µM

# Test system: not listed separately
# Assay: Solubility and solubility-range determination in 50 mM phosphate buffer at different pH
# Format: physicochemical
# Conditions: aqueous buffer, kinetic from dmso stock, pH 4, 50 mM phosphate buffer, 1% DMSO, 23° C., read-out: Solubility or solubility range
# Experimental: The compounds were dissolved in DMSO at a concentration of 20 mg/ml. These stock solutions were further diluted 1:1 with DMSO (50 μl solution+50 μl DMSO) in seven steps. Subsequently, these solutions were diluted 1:100 (5 μl DMSO-stock+495 μl 50 mM phosphate buffer) in all four pH buffers (respectively: pH=4; pH=6; pH=7.4; pH=9) resulting in a final DMSO concentration of 1% in the buffers. These dilutions were vigorously mixed and transferred into 96-well reading plate. The plates were incubated in a shaker (600 rpm) at 23° C. for 24 hours. After that, the contents of the wells were mixed with a pipette and optical density (OD) was recorded at wavelengths of 550 nm; 600 nm; 650 nm and 700 nm in the Tecan Sunrise plate reader. The cut-off OD sum for an undissolved concentration of a compound was defined as follows: Cut off OD sum=mean blank OD+0.050 OD. For the determination of the solubility range, the following rule was applied: OD>cut off=>compound not dissolved at this concentration OD<cut-off=>compound dissolved at this concentration For the determination of the solubility, a titration curve (OD/concentration) was prepared and the concentrations were determined based on the measured OD of the mixture supernatant after centrifugation. The solubility values are given in μg/ml (table 3).
row,Structure (SMILES),solubility at 24 h
1,"N=C(c1cccc(NC(=O)Nc2ccc(S(=O)(=O)NCc3ccc(S(N)(=O)=O)cc3)cc2)c1)N1CCS(=O)(=O)CC1 [Compound 44, 4-(3-(3-((1,1-dioxidothiomorpholino)(imino)methyl)phenyl)ureido)-N-(4-sulfamoylbenzyl)benzenesulfonamide]",> 200 µg/mL

# Same assay, conditions: aqueous buffer, kinetic from dmso stock, pH 6, 50 mM phosphate buffer, 1% DMSO, 23° C., read-out: Solubility or solubility range
row,Structure (SMILES),solubility at 24 h
1,"N=C(c1cccc(NC(=O)Nc2ccc(S(=O)(=O)NCc3ccc(S(N)(=O)=O)cc3)cc2)c1)N1CCS(=O)(=O)CC1 [Compound 44, 4-(3-(3-((1,1-dioxidothiomorpholino)(imino)methyl)phenyl)ureido)-N-(4-sulfamoylbenzyl)benzenesulfonamide]",> 200 µg/mL

# Same assay, conditions: aqueous buffer, kinetic from dmso stock, pH 7.4, 50 mM phosphate buffer, 1% DMSO, 23° C., read-out: Solubility or solubility range
row,Structure (SMILES),solubility at 24 h
1,"N=C(c1cccc(NC(=O)Nc2ccc(S(=O)(=O)NCc3ccc(S(N)(=O)=O)cc3)cc2)c1)N1CCS(=O)(=O)CC1 [Compound 44, 4-(3-(3-((1,1-dioxidothiomorpholino)(imino)methyl)phenyl)ureido)-N-(4-sulfamoylbenzyl)benzenesulfonamide]",> 200 µg/mL

# Same assay, conditions: aqueous buffer, kinetic from dmso stock, pH 9, 50 mM phosphate buffer, 1% DMSO, 23° C., read-out: Solubility or solubility range
row,Structure (SMILES),solubility at 24 h
1,"N=C(c1cccc(NC(=O)Nc2ccc(S(=O)(=O)NCc3ccc(S(N)(=O)=O)cc3)cc2)c1)N1CCS(=O)(=O)CC1 [Compound 44, 4-(3-(3-((1,1-dioxidothiomorpholino)(imino)methyl)phenyl)ureido)-N-(4-sulfamoylbenzyl)benzenesulfonamide]",> 200 µg/mL
